Data published in US20200246308A1, “SYNERGISTIC COMBINATIONS OF UROLITHINS A AND B FOR IMPROVING COGNITIVE CAPACITY OR COGNITIVE FUNCTION” (Natreon, Inc., priority 2018, published 2020).

Experiments:
[1] = tested on: scopolamine induced dementia in rats; test: Y-maze test, scopolamine induced dementia in rats (Study 2); assay type: in vivo, Charles Foster male albino rats; settings: 50 mg dose orally once daily; for Coping behavior to novel environment (% time in novel arm), trial-2 / Curiosity behavior (total number of entries), trial-1 and trial-2: scopolamine treated rats; for % known and novel arm entries (spatial recognition memory): vs scopolamine treated rats
Protocol: 2.2. Animal subjects. Inbred Charles Foster male albino rats (130-180 g) were obtained from the Central Animal House, Institute of Medical Sciences (IMS), Banaras Hindu University (BHU), Varanasi, Uttar Pradesh, India. These were certified to be pathogen free and were randomly distributed into different experimental groups. The rats were kept in the departmental animal house at an ambient temperature of 25±1° C. and 45-55% RH, with a 12-h light/dark cycle (lights on 7:00-19:00 h). The animals had free access to standard pellet chow and tap water ad libitum. Experiments were conducted between 9:00 and 14:00 h. The behavioral testing was done during the light phase. Animals were housed in groups and acclimatized for at least one week before using them for experiments. Animals were transported in cage covered by dark cloth to the experimental room. The experimental procedures were in compliance with National Institutes of Health Guide for Care and Use of Laboratory Animals.
The rats were pretreated orally for seven days through an orogastric tube with experimental drugs (10, 25 and 50 mg/kg once daily) suspended in 0.3% carboxymethyl cellulose (CMC). The treatment was continued until the end of the experiment procedures (Singh, G. K., Garabadu, D., Muruganadam, A. V., Joshi, V. K., Krishnamurthy, S., “Antidepressant activity of Asparagus racemosus in animal models of depression,” Pharmacol. Biochem. Behav. (2009) 91(3):283-90). Scopolamine was dissolved in water for injection and administered on day 7 after one hour of drug treatment administration. Donepezil (5 mg/kg; i.p.)
was used as standard drug. On day 8 the behavioral experiment was performed. The animals were sacrificed and hippocampus was micro-dissected using the coordinates of the rat brain atlas. All control group animals were treated with the 0.3 ml of vehicle (0.3% CMC suspension) equal to the volume of experimental drugs (Ohj a, R., et al., “Asparagus recemosus enhances memory and protects against amnesia in rodent models,” Brain Cogn. (2010) October; 74(1): 1-9).
Spatial recognition memory, general exploratory behavior, and anxiety-like behavior were assessed by the Y-maze test. Y-maze consists of three similar arms of dimension 50 cm long, 16 cm wide and 32 cm high. In the first trial, the novel arm was blocked and the animal was allowed to move for 15 min in other two arms. In the second trial, the novel arm was opened and the animal was allowed to move for 5 min in all three arms after 4 h of the first trial. The total number of entries in all arms (for 5 min of trial-1 and trial-2) is indicative of general exploration attitude (curiosity). The % entries in known and novel arms for the 5 min period of trial 2 were considered as a measure of spatial recognition memory. Coping strategy to the novel environment was estimated by the percentage of the ratio of time spent in the novel arm to time spent in all arms and in the center of the apparatus during trial 2. The decrease in the coping behavior to the novel environment was considered as an increase in anxiety-like behavior (Krishnamurthy, S., et al., “Risperidone ameliorates post-traumatic stress disorder-like symptoms in modified stress re-stress model,” Neuropharmacology (2013) 75:62-77).

[2] = tested on: acetylcholine (ACh) level in HIP tissue; test: Acetylcholine level in hippocampal tissue, Amplex Red kit (Example 9D); assay type: in vivo, Male Wistar rats; settings: p.o. 7 days: B 50, A 50, Donepezil 3, B:A 10:50 and 50:50, Shilajit 50 mg/kg
Protocol: Drug solution was freshly prepared in 0.3% CMC and administered by oral gavage once a day, for a period of 7 days. Briefly, the whole experiment was conducted for 8 days. Scopolamine (1 mg/kg), a muscarinic receptor antagonist, was dissolved in normal saline (0.9% NaCl) and administered intraperitoneally 1 h after drugs administration on seventh day.
Sample preparation: The animals were killed by decapitation and the brain tissues were dissected out in ice-cold conditions and stored at −80° C. until use. Tissue was homogenized in 1.0 ml of 0.1M perchloric acid with a Potter-Elvehjem homogenizer. The homogenate was kept in the polypropylene tubes for 15 min after which 40 μl of 4M potassium acetate was added to adjust the pH to 4.0 followed by centrifugation for 15 min at 4000×g. Supernatant was used to estimate acetylcholine and AChE activities.
Samples were prepared as in Example 9C. The amount of acetylcholine in brain tissues was measured using Amplex red assay kit (Molecular Probes, Inc., USA). An acetylcholine standard curve was used in each experiment. Briefly, the reactions are initiated by adding 0.1 ml of control (10 μM H2O2) and tissue homogenates were taken in two separate polypropylene tubes and then 0.1 ml working solution of 400 μM Amplex Red reagent containing 2 U/mL HRP, 0.2 U/mL choline oxidase and 1 U/mL acetylcholinesterase were added to each tube. After incubation for 45 min, the fluorescence was recorded with the help of spectrofluorometer at 530 nm excitation and 590 nm emission wavelengths. The protein content was determined using standard protocol (Lowry, et al., 1951).
Statistical analyses: The results were expressed as means±Standard Error mean (SEM). The intergroup variation was measured by one-way ANOVA followed by Student-Newman-Keuls test. Two-way followed by Bonferroni test was employed to discover the intergroup variation in Y maze test considering groups and arms as two independent variables. Statistical analysis was done by using Graph Pad prism version 5 (San Diego, Calif.). A level of p<0.05 was accepted as statistically significant.

Compound: O=c1oc2cc(O)ccc2c2ccc(O)cc12 [Urolithin A, 3,8-dihydroxy-dibenzo-alpha-pyrone]
- Coping behavior to novel environment (% time in novel arm), trial-2 [1]: attenuated the scopolamine-induced decrease in coping strategy
- Curiosity behavior (total number of entries), trial-1 and trial-2 [1]: attenuated the scopolamine induced decrease in curiosity behavior
- % known and novel arm entries (spatial recognition memory) [1]: dose dependently reversed the % known and novel arm entries
- Scopolamine-induced decrease in ACh level in HIP tissue [2]: attenuated the scopolamine induced decrease in ACh level

Compound: O=c1oc2cc(O)ccc2c2ccccc12 [Urolithin B, 3-hydroxy-dibenzo-alpha-pyrone]
- Coping behavior to novel environment (% time in novel arm), trial-2 [1]: attenuated the scopolamine-induced decrease in coping strategy
- Curiosity behavior (total number of entries), trial-1 and trial-2 [1]: attenuated the scopolamine induced decrease in curiosity behavior
- % known and novel arm entries (spatial recognition memory) [1]: dose dependently reversed the % known and novel arm entries
- Scopolamine-induced decrease in ACh level in HIP tissue [2]: attenuated the scopolamine induced decrease in ACh level
